This passage reports binding results from publication PMC9967584 (2023).

Each structure is given as a SMILES string.

The subject of the test is Cocaine-targeting aptamer (DNA, aptamer) AGACAAGGAAAATCCTTCAATGAAGTGGGTCG
Briefly: square wave voltammetry, aptamer on gold microelectrode. Conditions: PBS; MCH-passivated; non-coated and PSB-coated sensors same calibration, modified Langmuir fit, constant not given.

`COC(=O)[C@H]1[C@@H](OC(=O)c2ccccc2)C[C@@H]2CC[C@H]1N2C`: the binding result is on record as “yes”.
